Assays:
Test in all cases: Post-emergence herbicidal glasshouse test, percentage damage to the plant
Type in all cases: in vivo
Conditions in all cases: comparative experiment
[1] = tested on: Alopecurus myosuroides (ALOMY)
How it was run: (§1)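 Activity appears as a score from 1 (0-19% damage) to 5 (80-100%), assessed 13 days after a post-emergence spray of 8-day-old plants. Comparative runs used 250, 500 and 1000 g/ha; the standard rate was 1000 g/ha, formulated in acetone/water (50:50) with 0.5% Tween 20.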

[2] = tested on: Amaranthus retoflexus (AMARE)
How it was run: as §1

[3] = tested on: Echinochloa crus-galli (ECHCG)
How it was run: as §1

[4] = tested on: Ipomoea hederacea (IPOHE)
How it was run: as §1

[5] = tested on: Setaria faberi (SETFA)
How it was run: as §1

[6] = tested on: Solanum nigrum (SOLNI)
How it was run: as §1

Cc1cc(Cl)nn1C1C(=O)C=NN(C)C1=O (stereo not drawn) [Compound B, reference compound]
POST Application ALOMY, percentage damage (five point scale) ([1]; rate 250 g/ha): 1 (1=0-19%) | POST Application ALOMY, percentage damage (five point scale) ([1]; rate 500 g/ha): 1 (1=0-19%) | POST Application ALOMY, percentage damage (five point scale) ([1]; rate 1000 g/ha): 2 (2=20-39%) | POST Application AMARE, percentage damage (five point scale) ([2]; rate 250 g/ha): 2 (2=20-39%) | POST Application AMARE, percentage damage (five point scale) ([2]; rate 500 g/ha): 3 (3=40-59%) | POST Application AMARE, percentage damage (five point scale) ([2]; rate 1000 g/ha): 4 (4=60-79%) | POST Application ECHCG, percentage damage (five point scale) ([3]; rate 250 g/ha): 1 (1=0-19%) | POST Application ECHCG, percentage damage (five point scale) ([3]; rate 500 g/ha): 1 (1=0-19%) | POST Application ECHCG, percentage damage (five point scale) ([3]; rate 1000 g/ha): 2 (2=20-39%) | POST Application IPOHE, percentage damage (five point scale) ([4]; rate 250 g/ha): 1 (1=0-19%) | POST Application IPOHE, percentage damage (five point scale) ([4]; rate 500 g/ha): 2 (2=20-39%) | POST Application IPOHE, percentage damage (five point scale) ([4]; rate 1000 g/ha): 5 (5=80-100%) | POST Application SETFA, percentage damage (five point scale) ([5]; rate 250 g/ha): 1 (1=0-19%) | POST Application SETFA, percentage damage (five point scale) ([5]; rate 500 g/ha): 1 (1=0-19%) | POST Application SETFA, percentage damage (five point scale) ([5]; rate 1000 g/ha): 1 (1=0-19%) | POST Application SOLNI, percentage damage (five point scale) ([6]; rate 250 g/ha): 2 (2=20-39%) | POST Application SOLNI, percentage damage (five point scale) ([6]; rate 500 g/ha): 3 (3=40-59%) | POST Application SOLNI, percentage damage (five point scale) ([6]; rate 1000 g/ha): 4 (4=60-79%)
